We go through two compounds from patent publication US4923862A, “Topical preparation containing ofloxacin” (priority 1986, dated 1990).

Where two headings read alike, the source gives them in different places.

For series [1] the following is noted: U.S. Pat. No. 4,382,892; Antimicrobial Agent & Chemotherapy, Vol. 29, 163-164 (1986); cited from earlier work.
For another series, the system named is mice. Briefly: Acute toxicity in mice. The note with it: p.o.
Series [2] can be described thus: Stability of S-compound in aqueous solution. The note with it: 0.5% (wt./vol.) aqueous solution, pH 3 to 10, 2 weeks. The series is classed as physicochemical.
A short description of series [3]: Antimicrobial activity of Ofloxacin and S-compound (general statement). The note with it: compared with Ofloxacin.

As to `CC1COc2c(N3CCN(C)CC3)c(F)cc3c(=O)c(C(=O)O)cn1c23` (racemic) [Ofloxacin, (±)-9-fluoro-3-methyl-10-(4-methyl-1-piperazinyl)-7-oxo-2,3-dihydro-7H-pyrido[1,2,3de][1,4]benzoxazine-6-carboxylic acid], the antimicrobial activities entry in series [1] is listed as “excellent antimicrobial agent”. Moreover, in the series with mice, the “LD50 (acute toxicity)” value turned out to be 5450 mg/kg.

In the case of `C[C@H]1COc2c(N3CCN(C)CC3)c(F)cc3c(=O)c(C(=O)O)cn1c23` [S-compound, S-(-)-9-fluoro-3-methyl-10-(4-methyl-1-piperazinyl)-7-oxo-2,3-dihydro-7H-pyrido[1,2,3de][1,4]benzoxazine-6-carboxylic acid], the “decomposition (residual amount of S-compound)” value in series [2] is reported as “no decomposition was observed at all”. Moreover, the antimicrobial activities entry in series [3] is listed as “high antimicrobial activities”; in series [1], “potential antimicrobial activities”.
